Experimental data published in the CombiSolv-Exp solvation set (Vermeire and Green 2021).

Assay: solvent given as SMILES

CC(C)CC(C)C
Settings	solvation free energy, 298 K [kcal/mol]
in Brc1ccccc1	-3.81
in C1CCCCC1	-4.32
in C1CCOC1	-4.15
in C1COCCO1	-3.39
in C=CCCCC	-4.22
in C=CCCCCCC	-4.16
in C=CCCCCCCCC	-4.06
in C=CCCCCCCCCCCCCCC	-3.72
in CC1COC(=O)O1	-2.21
in CC#N	-2.78
in CC(=O)N(C)C	-2.97
in CC(=O)O	-3.06
in CC(=O)c1ccccc1	-3.18
in CC(C)=O	-3.45
in CC(C)CC(C)(C)C	-4.15
in CC(C)CCCC(C)CCCC(C)CCCCC(C)CCCC(C)CCCC(C)C	-3.68
in CC(C)CCO	-3.6
in CC(C)O	-3.45
in CC(C)OC(C)C	-4.18
in CCBr	-4.27
in CCC#N	-3.18
in CCC(C)=O	-3.66
in CCCC#N	-3.41
in CCCC(=O)OCC	-3.87
in CCCC(C)=O	-3.74
in CCCCC	-4.33
in CCCCCC	-4.35
in CCCCCC(C)=O	-3.75
in CCCCCCC	-4.22
in CCCCCCCC	-4.14
in CCCCCCCCC	-4.1
in CCCCCCCCCC	-4.06
in CCCCCCCCCCCC	-3.94
in CCCCCCCCCCCCCCCC	-3.85
in CCCCCCCCCCCCO	-3.49
in CCCCCCCCO	-3.57
in CCCCCCOC(C)=O	-3.87
in CCCCO	-3.5
in CCCCOC(C)=O	-3.81
in CCCCOCCCC	-4.13
in CCCO	-3.39
in CCN(CC)CC	-4.26
in CCO	-3.34
in CCOC(C)=O	-3.69
in CCOCC	-4.19
in CCOCCOCCOCC	-3.59
in CCOc1ccccc1	-3.64
in CN1CCCC1=O	-2.82
in CN(C)C=O	-2.82
in CN(C)P(=O)(N(C)C)N(C)C	-3.23
in CNC=O	-2.49
in CO	-2.99
in COC(C)=O	-3.51
in COCCO	-2.84
in COc1ccccc1	-3.57
in CS(C)=O	-2.03
in Cc1ccc(C)cc1	-4.07
in Cc1ccccc1	-4.07
in Cc1ccccn1	-3.66
in ClC(Cl)(Cl)Cl	-4.29
in ClC(Cl)Cl	-4.17
in ClCCCl	-3.63
in ClCCl	-3.96
in Clc1ccccc1	-4.04
in FC(F)(F)C(F)(F)C(F)(F)C(F)(F)C(F)(F)C(F)(F)C(F)(F)C(F)(F)F	-2.77
in FC(F)(F)C(F)(F)C(F)(F)C(F)(F)C(F)(F)C(F)(F)F	-2.85
in Fc1ccccc1	-4.04
in ICI	-2.14
in N#Cc1ccccc1	-3.27
in Nc1ccccc1	-2.55
in O	2.86
in O=C1CCCCC1	-3.56
in O=C1CCCO1	-2.36
in OCc1ccccc1	-2.76
in S=C=S	-4.19
in c1ccccc1	-4.03
in c1ccncc1	-3.4

Nc1ccc([N+](=O)[O-])cc1Cl
Settings	solvation free energy, 298 K [kcal/mol]
in O	-8.74

Cc1nc(N(C)C)nc(OC(=O)N(C)C)c1C
Settings	solvation free energy, 298 K [kcal/mol]
in O	-9.41

COC(=O)c1ccc(O)cc1
Settings	solvation free energy, 298 K [kcal/mol]
in C1CCOC1	-12.5
in C1COCCO1	-12.3
in CC(C)(C)O	-12.2
in CC(C)=O	-12.3
in CC(C)CO	-12
in CCC(C)O	-12.2
in CCCCCC	-7.42
in CCCCCCCCCCO	-11.4
in CCCCCCO	-11.9
in CCCCCO	-12
in CCCCO	-12.1
in CCCCOC(C)=O	-11.8
in CCCCOCCCC	-10.7
in CCCO	-12.2
in CCOC(C)=O	-11.9
in CCOCC	-11.7
in CNC=O	-12.7
in COC(C)(C)C	-11.8
in NC=O	-12.1
in O	-9.35

C=C(C)C1CCC2(C)CCCC(=C)C2C1 (stereo not drawn)
Settings	solvation free energy, 298 K [kcal/mol]
in O	-0.05

C=C(C)C1CCC2(CO)CCC3(C)C(CCC4C5(C)CCC(O)C(C)(C)C5CCC43C)C12 (stereo not drawn)
Settings	solvation free energy, 298 K [kcal/mol]
in CC(C)=O	-27.9
in CCCCCCO	-27.3
in CCCCCO	-27.6
in CCCCO	-28
in CCCO	-27.8
in CCO	-27.7
in CCOC(C)=O	-27.8
in CO	-27.3
in COC(C)=O	-27.4
in ClC(Cl)Cl	-28.4
in ClCCl	-27.7
in O	-14.2

Cc1nnc(NS(=O)(=O)c2ccc(N)cc2)s1
Settings	solvation free energy, 298 K [kcal/mol]
in O	-19.3
